Data taken from US10899754B2, “Modulators of indoleamine 2,3-dioxygenase” (GLAXOSMITHKLINE INTELLECTUAL PROPERTY DEVELOPMENT LIMITED, priority 2016, dated 2021).

How the values were obtained:
Type in all cases: cell-based
[1] = test system: human epithelial HeLa cells; assay: HeLa cytotoxicity assay (CellTiter-Glo); settings: pCC50
Description: (§1) Compounds of the present invention were tested via high-throughput cellular assays utilizing detection of kynurenine via mass spectrometry and cytotoxicity as end-points. For the mass spectrometry and cytotoxicity assays, human epithelial HeLa cells (CCL-2; ATCC®, Manassas, Va.) were stimulated with human interferon-γ (IFN-γ) (Sigma-Aldrich Corporation, St. Louis, Mo.) to induce the expression of indoleamine 2, 3-dioxygenase (IDO1). Compounds with IDO1 inhibitory properties decreased the amount of kynurenine produced by the cells via the tryptophan catabolic pathway. Cellular toxicity due to the effect of compound treatment was measured using CellTiter-Glo® reagent (CTG) (Promega Corporation, Madison, Wis.), which is based on luminescent detection of ATP, an indicator of metabolically active cells.
(§2) In preparation for the assays, test compounds were serially diluted 3-fold in DMSO from a typical top concentration of 1 mM or 5 mM and plated at 0.5 μL in 384-well, polystyrene, clear bottom, tissue culture treated plates with lids (Greiner Bio-One, Kremsmünster, Austria) to generate 11-point dose response curves. Low control wells (0% kynurenine or 100% cytotoxicity) contained either 0.5 μL of DMSO in the presence of unstimulated (−IFN-γ) HeLa cells for the mass spectrometry assay or 0.5 μL of DMSO in the absence of cells for the cytotoxicity assay, and high control wells (100% kynurenine or 0% cytotoxicity) contained 0.5 μL of DMSO in the presence of stimulated (+IFN-γ) HeLa cells for both the mass spectrometry and cytotoxicity assays.
(§3) Frozen stocks of HeLa cells were washed and recovered in DMEM high glucose medium with HEPES (Thermo Fisher Scientific, Inc., Waltham, Mass.) supplemented with 10% v/v certified fetal bovine serum (FBS) (Thermo Fisher Scientific, Inc., Waltham, Mass.), and 1× penicillin-streptomycin antibiotic solution (Thermo Fisher Scientific, Inc., Waltham, Mass.). The cells were diluted to 100,000 cells/mL in the supplemented DMEM medium. 50 μL of either the cell suspension, for the mass spectrometry assay, or medium alone, for the cytotoxicity assay, were added to the low control wells, on the previously prepared 384-well compound plates, resulting in 5,000 cells/well or 0 cells/well respectively. IFN-γ was added to the remaining cell suspension at a final concentration of 10 nM, and 50 μL of the stimulated cells were added to all remaining wells on the 384-well compound plates. The plates, with lids, were then placed in a 37° C., 5% CO2 humidified incubator for 2 days.
(§4) Following incubation, the 384-well plates were removed from the incubator and allowed to equilibrate to room temperature for 30 minutes. For the cytotoxicity assay, CellTiter-Glo® was prepared according to the manufacturer's instructions, and 10 μL were added to each plate well. After a twenty minute incubation at room temperature, luminescence was read on an EnVision® Multilabel Reader (PerkinElmer Inc., Waltham, Mass.). For the mass spectrometry assay, 10 μL of supernatant from each well of the compound-treated plates were added to 40 μL of acetonitrile, containing 10 μM of an internal standard for normalization, in 384-well, polypropylene, V-bottom plates (Greiner Bio-One, Kremsmünster, Austria) to extract the organic analytes. Following centrifugation at 2000 rpm for 10 minutes, 10 μL from each well of the acetonitrile extraction plates were added to 90 μL of sterile, distilled H2O in 384-well, polypropylene, V-bottom plates for analysis of kynurenine and the internal standard on the RapidFire 300 (Agilent Technologies, Santa Clara, Calif.) and 4000 QTRAP MS (SCIEX, Framingham, Mass.). MS data were integrated using Agilent Technologies' RapidFire Integrator software, and data were normalized for analysis as a ratio of kynurenine to the internal standard. […]

[2] = target: T1, indoleamine 2, 3-dioxygenase (IDO1) (Homo sapiens, UniProt P14902); assay: IDO1 HeLa RapidFire MS assay (kynurenine detection by mass spectrometry); set-up: to induce the expression of indoleamine 2, 3-dioxygenase (IDO1); settings: HeLa cells, pIC50, read-out: IDO1_HELA_PXC50 (converted)
Description: IDO1 HeLa RapidFire MS Assay
as §1, §2, §3, §4

[3] = test system: human peripheral blood mononuclear cells (PBMC); assay: PBMC cytotoxicity assay (CellTiter-Glo); settings: 2 days, pCC50
How it was run: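 Human PBMC (50,000 cells/well) stimulated with IFN-γ 100 ng/ml and LPS 50 ng/ml were exposed to 11-point 3-fold compound dilutions for 2 days at 37 °C, 5% CO2. Viability read by CellTiter-Glo ATP luminescence and normalized to no-cell and stimulated-DMSO controls. XC50 derived by four-parameter fit.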

[4] = target: T1, indoleamine 2, 3-dioxygenase (IDO1); assay: IDO1 PBMC RapidFire MS assay (kynurenine detection by mass spectrometry); set-up: to induce the expression of indoleamine 2, 3-dioxygenase (IDO1); host or cells: human PBMC stimulated with IFN-gamma and LPS; settings: human PBMC stimulated with IFN-γ and LPS, 2 days, pIC50, read-out: PBMC PXC50 (converted)
How it was run: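 PBMCs (50,000 cells/well) stimulated with IFN-γ 100 ng/ml plus LPS 50 ng/ml, treated with 11-point 3-fold compound series for 2 days at 37° C. Supernatant kynurenine measured by RapidFire MS, normalised to internal standard; parallel cytotoxicity by CellTiter-Glo luminescence; curves fitted for XC50.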

T1 sequence (P14902 whole entry): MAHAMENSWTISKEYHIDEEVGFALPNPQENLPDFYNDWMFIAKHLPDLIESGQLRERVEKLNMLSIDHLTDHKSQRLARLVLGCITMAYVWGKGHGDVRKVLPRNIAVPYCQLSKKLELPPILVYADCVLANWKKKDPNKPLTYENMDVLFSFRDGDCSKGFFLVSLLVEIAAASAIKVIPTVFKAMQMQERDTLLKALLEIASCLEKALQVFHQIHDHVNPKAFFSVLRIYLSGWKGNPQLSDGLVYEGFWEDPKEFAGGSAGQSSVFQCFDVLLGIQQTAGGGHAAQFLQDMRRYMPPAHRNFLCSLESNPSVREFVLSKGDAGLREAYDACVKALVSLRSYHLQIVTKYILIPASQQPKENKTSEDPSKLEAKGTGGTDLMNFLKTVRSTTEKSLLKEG

SMILES: CC(C)CN(CC(C)C)c1ccc(C(C)CC(=O)O)cc1Nc1cnc(CO)s1 (centres unmarked) [example 207, 3-{4-[bis(2-methylpropyl)amino]-3-{[2-(hydroxymethyl)-1,3-thiazol-5-yl]amino}phenyl}butanoic acid]
- HELA_IDO1_TOX_PXC50 [1]: <5
- IC50 [2]: 631 nM

SMILES: CC(C)CN(CC(C)C)c1ccc(C(C)CC(=O)O)cc1Nc1ncc(-c2ccccc2)o1 (centres unmarked) [example 121, 3-{4-[bis(2-methylpropyl)amino]-3-[(5-phenyl-1,3-oxazol-2-yl)amino]phenyl}butanoic acid]
- HELA_IDO1_TOX_PXC50 [1]: 4.4
- IC50 [2]: 7940 nM

SMILES: CC(C)CN(CC(C)C)c1ccc(C(C)CC(=O)O)cc1Nc1nc(-c2ccccc2)cs1 (centres unmarked) [example 128, 3-{4-[bis(2-methylpropyl)amino]-3-[(4-phenyl-1,3-thiazol-2-yl)amino]phenyl}butanoic acid]
- HELA_IDO1_TOX_PXC50 [1]: 4.4
- IC50 [2]: 2510 nM

SMILES: COCc1ncc(Nc2cc(C(C)CC(=O)O)ccc2N(CC(C)C)CC(C)C)o1 (centres unmarked) [example 191, 3-{4-[bis(2-methylpropyl)amino]-3-{[2-(methoxymethyl)-1,3-oxazol-5-yl]amino]phenyl}butanoic acid]
- HELA_IDO1_TOX_PXC50 [1]: <5
- IC50 [2]: 2000 nM

SMILES: CC(C)CN(c1ccc(-c2cnn(C)c2C(=O)O)cc1Nc1nc2ccccc2o1)C1CCCCC1 [example 178, 4-{3-[(1,3-benzoxazol-2-yl)amino]-4-[cyclohexyl(2-methylpropyl)amino]phenyl}-1-methyl-1H-pyrazole-5-carboxylic acid]
- HELA_IDO1_TOX_PXC50 [1]: <5
- IC50 [2]: 3160 nM

SMILES: CC(C)CN(CC(C)C)c1ccc(C(C)CC(=O)O)cc1Nc1ccccc1 (centres unmarked) [example 142, 3-{4-[bis(2-methylpropyl)amino]-3-(phenylamino)phenyl} butanoic acid]
- HELA_IDO1_TOX_PXC50 [1]: <5
- IC50 [2]: 158 nM

SMILES: CC(C)CN(c1ccc(/C=C/C(=O)O)cc1Nc1nc2ccccc2o1)C1CCCCC1 [example 137, (2E)-3-{3-[(1,3-benzoxazol-2-yl)amino]-4-[cyclohexyl(2-methylpropyl)amino]phenyl}prop-2-enoic acid]
- HELA_IDO1_TOX_PXC50 [1]: <5

SMILES: CC(C)CN(CC(C)C)c1ccc([C@@H]2C[C@@H]2C(=O)O)cc1Nc1nc(C(F)(F)F)ns1 (single isomer, unassigned) [example 209]
- PBMC TOX PXC50 [3]: <5
- IC50 [4]: 50.1 nM
- IC50 [2]: 20 nM

SMILES: CC(C)CN(CC(C)C)c1ccc(C(C)CC(=O)O)cc1Nc1nnc(-c2ccccc2)o1.O=C(O)C(F)(F)F (centres unmarked) [example 123, 3-{4-[bis(2-methylpropyl)amino]-3-[(5-phenyl-1,3,4-oxadiazol-2-yl)amino]phenyl}butanoic acid]
- HELA_IDO1_TOX_PXC50 [1]: <4.3

SMILES: COCc1nnc(Nc2cc([C@H](C)CC(=O)O)ccc2N(CC(C)C)C2CCOCC2)s1 [example 216, (3R)-3-(3-{[5-(methoxymethyl)-1,3,4-thiadiazol-2-yl]amino}-4-[(2-methylpropyl)(oxan-4-yl)amino]phenyl)butanoic acid]
- PBMC TOX PXC50 [3]: <5
- IC50 [4]: 39.8 nM
- IC50 [2]: 50.1 nM

SMILES: CC(C)CN(c1ccc(C(C)CC(=O)O)cc1NCc1c[nH]cn1)C1CCCCC1 (centres unmarked) [example 159, 3-{4-[cyclohexyl(2-methylpropyl)amino]-3-{[(1H-imidazol-4-yl)methyl]amino}phenyl} butanoic acid]
- PBMC TOX PXC50 [3]: <5
- HELA_IDO1_TOX_PXC50 [1]: <5
- IC50 [4]: 5010 nM

SMILES: CC(C)CN(CC(C)C)c1ccc(C(C)CC(=O)O)cc1Nc1nc(N2CCC2)ns1 (centres unmarked) [example 120, 3-(3-{[3-(azetidin-1-yl) 1,2,4-thiadiazol-5-yl]amino}-4-[bis(2-methylpropyl)amino]phenyl)butanoic acid]
- PBMC TOX PXC50 [3]: 4.7
- HELA_IDO1_TOX_PXC50 [1]: <4.3

SMILES: CONC(=O)C[C@@H](C)c1ccc(N(CC(C)C)C2CCOCC2)c(Nc2nc(C(F)(F)F)ns2)c1 [Example 106, (R)-3-(4-(Isobutyl(tetrahydro-2H-pyran-4-yl)amino)-3-((3-(trifluoromethyl)-1,2,4-thiadiazol-5-yl)amino)phenyl)-N-methoxybutanamide]
- PBMC TOX PXC50 [3]: <5
- IC50 [4]: 6.31 nM

SMILES: CC(C)CN(c1ccc(C(C)Nc2c(O)c(=O)c2=O)cc1Nc1nc(C(F)(F)F)ns1)C1CCOCC1 (centres unmarked) [example 256, 3-hydroxy-4-[(1-{4-[(2-methylpropyl)(oxan-4-yl)amino]-3-{[3-(trifluoromethyl)-1,2,4-thiadiazol-5-yl]amino}phenyl}ethyl)amino]cyclobut-3-ene-1,2-dione]
- PBMC TOX PXC50 [3]: <5
- IC50 [4]: 2510 nM

SMILES: CC(C)CN(c1ccc([C@H](C)CC(=O)O)cc1Nc1nc(C(F)(F)F)ns1)C1CCN(C(=O)C2CC2)CC1 [Example 64, (R)-3-(4-((1-(cyclopropanecarbonyl)piperidin-4-yl) (isobutyl)amino)-3-((3-(trifluoromethyl)-1,2,4-thiadiazol-5-yl)amino)phenyl)butanoic Acid]
- PBMC TOX PXC50 [3]: <5
- IC50 [4]: 1 nM

SMILES: CC(C)CN(c1ccc([C@H](C)CC(=O)O)cc1Nc1cnc(C(N)=O)cn1)C1CCOCC1 [example 264, (3R)-3-{3-[(5-carbamoylpyrazin-2-yl)amino]-4-[(2-methylpropyl)(oxan-4-yl)amino]phenyl}butanoic acid]
- PBMC TOX PXC50 [3]: <5
- IC50 [4]: 79.4 nM

SMILES: CC(C)CN(c1ccc([C@H](C)CC(=O)O)cc1Nc1n[nH]c(C#N)n1)C1CCOCC1 [example 226, (3R)-3-{3-[(5-cyano-1H-1,2,4-triazol-3-yl)amino]-4-[(2-methylpropyl)(oxan-4-yl)amino]phenyl}butanoic acid]
- PBMC TOX PXC50 [3]: <5
- IC50 [4]: 126 nM

SMILES: CC(C)CN(c1ccc([C@H](C)CC(=O)O)cc1Nc1ccc(Cl)cn1)C1CCOCC1 [Example 8, (R)-3-(3-((5-chloropyridin-2-yl)amino)-4-(isobutyl(tetrahydro-2H-pyran-4-yl)amino)phenyl)butanoic Acid]
- PBMC TOX PXC50 [3]: <5
- IC50 [4]: 0.794 nM

SMILES: CC(C)CN(c1ccc([C@H](C)CC(=O)O)cc1Nc1ncc(C(F)(F)F)cn1)C1CCOCC1 [example 241, (3R)-3-{4-[(2-methylpropyl)(oxan-4-yl)amino]-3-{[5-(trifluoromethyl)pyrimi-din-2-yl]amino}phenyl}butanoic acid]
- PBMC TOX PXC50 [3]: <5
- IC50 [4]: 79.4 nM

SMILES: CC(C)CN(c1ccc([C@H](C)CC(=O)NS(C)(=O)=O)cc1Nc1nc(C(F)(F)F)ns1)C1CCOCC1 [Example 107, (R)-3-(4-(Isobutyl(tetrahydro-2H-pyran-4-yl)amino)-3-((3-(trifluoromethyl)-1,2,4-thiadiazol-5-yl)amino)phenyl)-N-(methylsulfonyl)butanamide]
- PBMC TOX PXC50 [3]: 5.3
- IC50 [4]: 6.31 nM
